Key:
Assay type in all cases: in vivo
Nutgrass [1] = assay: Preemergence herbicidal activity, % control of plant growth; conditions: pre-emergence, 504 h, 16 lb/acre, about 3 weeks
Description: (§1) By "preemergence" is meant that the compound is applied to the soil prior to emergence of the weed species sought to be controlled. This term, as used herein, also means the application of the herbicidal compounds falling within the scope of this disclosure to areas wherein useful or desirable plants are either growing or have been sown, but where the undesirable plants sought to be controlled have not as yet emerged.
(§2) In using the compound, seeds of the types of plants set forth in Table II were sown in fresh soil. In the preemergence test the soil was sprayed with a solution of the test compound immediately after the seeds were planted, and before any noticeable growth developed. The solution was about a 2 percent by weight solution of the compound in acetone and/or alcohol. The compound was applied at the rate of 16 pounds per acre of soil surface.
(§3) Approximately 3 weeks after spray application, the herbicidal activity of the compound was determined by visual observation of the treated area in comparison with untreated control areas. These observations are reported below in Table II wherein the average activity rating is reported as the percent control of plant growth.
(§4) *Preemergence test: compound applied at rate of 16 lb/acre

Alfalfa [2] = assay: as above; conditions: Medicago sativa, pre-emergence, 504 h, 16 lb/acre, about 3 weeks
Description: as §1, §2, §3, §4

Cheatgrass [3] = assay: as above; conditions: Bromus tectorum, pre-emergence, 504 h, 16 lb/acre, about 3 weeks
Description: as §1, §2, §3, §4

Snapbeans [4] = assay: as above; conditions: pre-emergence, 504 h, 16 lb/acre, about 3 weeks
Description: as §1, §2, §3, §4

Barnyard Grass [5] = assay: as above; conditions: Echinochloa crus-galli, pre-emergence, 504 h; barnyard grass; 16 lb/acre; about 3 weeks
Description: as §1, §2, §3, §4

Crabgrass [6] = assay: as above; conditions: Digitaria sanguinalis, pre-emergence, 504 h, 16 lb/acre, about 3 weeks
Description: as §1, §2, §3, §4

Yellow Rocket [7] = assay: as above; conditions: pre-emergence, 504 h, 16 lb/acre, about 3 weeks
Description: as §1, §2, §3, §4

Chickweed [8] = assay: as above; conditions: pre-emergence, 504 h, 16 lb/acre, about 3 weeks
Description: as §1, §2, §3, §4

Pigweed [9] = assay: as above; conditions: Amaranthus retroflexus, pre-emergence, 504 h, 16 lb/acre, about 3 weeks
Description: as §1, §2, §3, §4

Foxtail [10] = assay: as above; conditions: Setaria, pre-emergence, 504 h, 16 lb/acre, about 3 weeks
Description: as §1, §2, §3, §4

Johnsongrass [11] = assay: as above; conditions: Sorghum halepense, pre-emergence, 504 h, 16 lb/acre, about 3 weeks
Description: as §1, §2, §3, §4

Corn [12] = assay: as above; conditions: Zea mays, pre-emergence, 504 h, 16 lb/acre, about 3 weeks
Description: as §1, §2, §3, §4

Curled Dock [13] = assay: as above; conditions: pre-emergence, 504 h, 16 lb/acre, about 3 weeks
Description: as §1, §2, §3, §4

Cucumber [14] = assay: as above; conditions: Cucumis sativus, pre-emergence, 504 h, 16 lb/acre, about 3 weeks
Description: as §1, §2, §3, §4

Velvetleaf [15] = assay: as above; conditions: Abutilon theophrasti, pre-emergence, 504 h, 16 lb/acre, about 3 weeks
Description: as §1, §2, §3, §4

Lambsquarters [16] = assay: as above; conditions: Chenopodium album, pre-emergence, 504 h, 16 lb/acre, about 3 weeks
Description: as §1, §2, §3, §4

Wild Oats [17] = assay: as above; conditions: Avena fatua, pre-emergence, 504 h, 16 lb/acre, about 3 weeks
Description: as §1, §2, §3, §4

Nutgrass [18] = assay: Postemergence herbicidal activity, % control of plant growth; conditions: post-emergence, 264 h, 8 lb/acre, about 11 days
Description: (§5) By the term "postemergence" is meant that the compound is applied to the plant sought to be controlled after it has emerged from the soil surface. This term is also used to describe the application of herbicidally active compounds to soil surface in and around growing plants sought to be controlled for purposes of effecting root absorption by the undesirable plant species.
(§6) In the postemergence test the soil and developing plants were sprayed approximately 2 weeks after the seeds were sown. The compound was applied at the rate of 8 pounds per acre from about a 2 percent by weight solution of the test compound in acetone and/or alcohol. The postemergence herbicidal activity was measured in the same way as the preemergence activity; i.e. visual observation approximately 11 days after spraying, and expressed as the percent control of plant growth.
(§7) **Postemergence test: compound applied at rate of 8 lb/acre

Alfalfa [19] = assay: as above; conditions: Medicago sativa, post-emergence, 264 h, 8 lb/acre, about 11 days
Description: as §5, §6, §7

Cheatgrass [20] = assay: as above; conditions: Bromus tectorum, post-emergence, 264 h, 8 lb/acre, about 11 days
Description: as §5, §6, §7

Snapbeans [21] = assay: as above; conditions: post-emergence, 264 h, 8 lb/acre, about 11 days
Description: as §5, §6, §7

Barnyard Grass [22] = assay: as above; conditions: Echinochloa crus-galli, post-emergence, 264 h, 8 lb/acre, about 11 days
Description: as §5, §6, §7

Crabgrass [23] = assay: as above; conditions: Digitaria sanguinalis, post-emergence, 264 h, 8 lb/acre, about 11 days
Description: as §5, §6, §7

Yellow Rocket [24] = assay: as above; conditions: post-emergence, 264 h, 8 lb/acre, about 11 days
Description: as §5, §6, §7

Chickweed [25] = assay: as above; conditions: post-emergence, 264 h, 8 lb/acre, about 11 days
Description: as §5, §6, §7

Pigweed [26] = assay: as above; conditions: Amaranthus retroflexus, post-emergence, 264 h, 8 lb/acre, about 11 days
Description: as §5, §6, §7

Foxtail [27] = assay: as above; conditions: Setaria, post-emergence, 264 h, 8 lb/acre, about 11 days
Description: as §5, §6, §7

Johnsongrass [28] = assay: as above; conditions: Sorghum halepense, post-emergence, 264 h, 8 lb/acre, about 11 days
Description: as §5, §6, §7

Corn [29] = assay: as above; conditions: Zea mays, post-emergence, 264 h, 8 lb/acre, about 11 days
Description: as §5, §6, §7

Curled Dock [30] = assay: as above; conditions: post-emergence, 264 h, 8 lb/acre, about 11 days
Description: as §5, §6, §7

Cucumber [31] = assay: as above; conditions: Cucumis sativus, post-emergence, 264 h, 8 lb/acre, about 11 days
Description: as §5, §6, §7

Velvetleaf [32] = assay: as above; conditions: Abutilon theophrasti, post-emergence, 264 h, 8 lb/acre, about 11 days
Description: as §5, §6, §7

Lambsquarters [33] = assay: as above; conditions: Chenopodium album, post-emergence, 264 h, 8 lb/acre, about 11 days
Description: as §5, §6, §7

Wild Oats [34] = assay: as above; conditions: Avena fatua, post-emergence, 264 h, 8 lb/acre, about 11 days
Description: as §5, §6, §7

SMILES	pest or weed control at 17933.6 g/ha (Nutgrass [1])	pest or weed control at 17933.6 g/ha (Alfalfa [2])	pest or weed control at 17933.6 g/ha (Cheatgrass [3])	pest or weed control at 17933.6 g/ha (Snapbeans [4])	pest or weed control at 17933.6 g/ha (Barnyard Grass [5])	pest or weed control at 17933.6 g/ha (Crabgrass [6])	pest or weed control at 17933.6 g/ha (Yellow Rocket [7])	pest or weed control at 17933.6 g/ha (Chickweed [8])	pest or weed control at 17933.6 g/ha (Pigweed [9])	pest or weed control at 17933.6 g/ha (Foxtail [10])	pest or weed control at 17933.6 g/ha (Johnsongrass [11])	plant injury at 17933.6 g/ha (Corn [12])	pest or weed control at 17933.6 g/ha (Curled Dock [13])	pest or weed control at 17933.6 g/ha (Cucumber [14])	pest or weed control at 17933.6 g/ha (Velvetleaf [15])	pest or weed control at 17933.6 g/ha (Lambsquarters [16])	pest or weed control at 17933.6 g/ha (Wild Oats [17])	pest or weed control at 8966.8 g/ha (Nutgrass [18])	pest or weed control at 8966.8 g/ha (Alfalfa [19])	pest or weed control at 8966.8 g/ha (Cheatgrass [20])	other results
O=c1[nH]c2cccnc2c(=O)n1C1CC1 [3-cyclopropyl pyrido[3,2-d]pyrimidine-2,4(1H,3H)-dione]	0%	100%	100%	100%	10%	100%	100%	100%	100%	10%	10%	10%	100%	100%	100%	100%	80%	0%	0%	0%	pest or weed control at 8966.8 g/ha (Snapbeans [21]): 0%; pest or weed control at 8966.8 g/ha (Barnyard Grass [22]): 0%; pest or weed control at 8966.8 g/ha (Crabgrass [23]): 10%; pest or weed control at 8966.8 g/ha (Yellow Rocket [24]): 100%; pest or weed control at 8966.8 g/ha (Chickweed [25]): 100%; pest or weed control at 8966.8 g/ha (Pigweed [26]): 90%; pest or weed control at 8966.8 g/ha (Foxtail [27]): 0%; pest or weed control at 8966.8 g/ha (Johnsongrass [28]): 0%; plant injury at 8966.8 g/ha (Corn [29]): 0%; pest or weed control at 8966.8 g/ha (Curled Dock [30]): 10%; pest or weed control at 8966.8 g/ha (Cucumber [31]): 20%; pest or weed control at 8966.8 g/ha (Velvetleaf [32]): 0%; pest or weed control at 8966.8 g/ha (Lambsquarters [33]): 100%
O=c1[nH]c2nccnc2c(=O)n1C1CCCCCCC1 [Lumazine, 3-cyclooctyl]	30%	100%	100%	100%	70%	90%	100%	100%	100%	40%	90%	30%	100%	100%	100%	100%	100%	10%	10%	0%	pest or weed control at 8966.8 g/ha (Snapbeans [21]): 100%; pest or weed control at 8966.8 g/ha (Barnyard Grass [22]): 90%; pest or weed control at 8966.8 g/ha (Crabgrass [23]): 100%; pest or weed control at 8966.8 g/ha (Yellow Rocket [24]): 100%; pest or weed control at 8966.8 g/ha (Chickweed [25]): 100%; pest or weed control at 8966.8 g/ha (Foxtail [27]): 50%; pest or weed control at 8966.8 g/ha (Johnsongrass [28]): 100%; plant injury at 8966.8 g/ha (Corn [29]): 10%; pest or weed control at 8966.8 g/ha (Curled Dock [30]): 100%; pest or weed control at 8966.8 g/ha (Cucumber [31]): 100%; pest or weed control at 8966.8 g/ha (Velvetleaf [32]): 100%; pest or weed control at 8966.8 g/ha (Lambsquarters [33]): 100%; pest or weed control at 8966.8 g/ha (Wild Oats [34]): 10%
CC(C)n1c(=O)[nH]c2nccnc2c1=O [Lumazine, 3-isopropyl]	0%	100%	10%	90%	0%	70%	100%	60%	100%	10%	70%	10%	100%	100%	100%	100%	10%	0%	0%	0%	pest or weed control at 8966.8 g/ha (Snapbeans [21]): 30%; pest or weed control at 8966.8 g/ha (Barnyard Grass [22]): 0%; pest or weed control at 8966.8 g/ha (Crabgrass [23]): 0%; pest or weed control at 8966.8 g/ha (Chickweed [25]): 0%; pest or weed control at 8966.8 g/ha (Pigweed [26]): 0%; pest or weed control at 8966.8 g/ha (Foxtail [27]): 0%; pest or weed control at 8966.8 g/ha (Johnsongrass [28]): 0%; plant injury at 8966.8 g/ha (Corn [29]): 0%; pest or weed control at 8966.8 g/ha (Curled Dock [30]): 0%; pest or weed control at 8966.8 g/ha (Cucumber [31]): 10%; pest or weed control at 8966.8 g/ha (Velvetleaf [32]): 0%; pest or weed control at 8966.8 g/ha (Lambsquarters [33]): 40%; pest or weed control at 8966.8 g/ha (Wild Oats [34]): 0%

— US3960877A, “N-monosubstituted-2,3-pyridinedicarboxamides, and related compounds” (priority 1974, dated 1976)
